# In DBAASP:
# Legend:
# Assay in all cases: ≥ marks a high value that may be exact or a test limit, other limits are often not marked, values filed in µg/mL are converted to µM
# [1] = system: Trichosporon beigelii KCTC 7707
# [2] = system: Proteus vulgaris KCTC 2433
# [3] = system: Salmonella typhimurium KCTC 1926
# [4] = system: Bacillus subtilis KCTC 1918
# [5] = system: Saccharomyces cerevisiae KCTC 7296
# [6] = system: Staphylococcus aureus KCTC 1621
# [7] = system: Candida albicans TIMM 1768
# [8] = system: Malassezia furfur KCTC 7744
# [9] = system: Candida albicans ATCC 90028
# Pseudomonas aeruginosa 1 = system: Pseudomonas aeruginosa 1
# Pseudomonas aeruginosa = system: Pseudomonas aeruginosa
# Staphylococcus aureus 4 = system: Staphylococcus aureus 4
# Staphylococcus aureus 1 = system: Staphylococcus aureus 1
# Escherichia coli O157 = system: Escherichia coli O157
# [10] = system: Candida parapsilosis ATCC 22019
# Enterococcus faecium = system: Enterococcus faecium
# Staphylococcus aureus = system: Staphylococcus aureus
# [11] = system: Escherichia coli ATCC 25726
# [12] = system: Staphylococcus aureus ATCC 25923
# [13] = system: Batrachochytrium dendrobatidis JEL-197
# [14] = system: Candida albicans ATCC 20032
# [15] = system: Escherichia coli ATCC 25922
# [16] = system: Bacillus subtilis ATCC 6633
# [17] = system: Staphylococcus epidermidis ATCC 14990
# [18] = system: Staphylococcus aureus ATCC 12600
# [19] = system: Streptococcus salivarius ATCC 13419
# [20] = system: Yersinia pseudotuberculosis YPIII
# [21] = system: Candida albicans ATCC 10231
# Staphylococcus capitis 1 = system: Staphylococcus capitis 1
# [22] = system: Streptococcus pyogenes ATCC 21547
# [23] = system: Enterococcus faecalis ATCC 29212
# [24] = system: Pseudomonas aeruginosa ATCC 15692
# [25] = system: Pseudomonas syringae pv. tabaci 1918NCPPB
# Bacillus megaterium Bm11 = system: Bacillus megaterium Bm11
# [26] = system: Acinetobacter baumannii ATCC 19606
# [27] = system: Pseudomonas aeruginosa ATCC 27853
# [28] = system: Schizosaccharomyces pombe
# Escherichia coli D21 = system: Escherichia coli D21
# Acinetobacter junii RT-4 = system: Acinetobacter junii RT-4
# [29] = system: Staphylococcus epidermidis ATCC 12228
# Saccharomyces cerevisiae = system: Saccharomyces cerevisiae
# [30] = system: Staphylococcus aureus Cowan 1
# Enterobacter cloacae = system: Enterobacter cloacae
# Escherichia coli = system: Escherichia coli
# [31] = system: Salmonella enterica subsp. enterica serovar Typhi
# Bacillus subtilis = system: Bacillus subtilis
smiles,measurement,setting,value
CC[C@H](C)[C@H](NC(=O)CNC(=O)[C@H](CC(C)C)NC(=O)[C@H](CCCN=C(N)N)NC(=O)[C@H](CCCCN)NC(=O)[C@H](Cc1ccccc1)NC(=O)[C@@H](NC(=O)[C@H](CCCCN)NC(=O)[C@H](CCCCN)NC(=O)[C@H](C)N)C(C)C)C(=O)NCC(=O)N[C@@H](C)C(=O)N[C@H](C(=O)N[C@@H](CC(C)C)C(=O)N[C@@H](CCCCN)C(=O)N[C@H](C(=O)N[C@@H](CC(C)C)C(=O)N[C@H](C(=O)N[C@@H](Cc1c[nH]c2ccccc12)C(=O)NCC(=O)O)[C@@H](C)O)C(C)C)C(C)C [AKKVFKRLGIGAVLKVLTWG],MIC,[1],≥ 35.4 µM
same,MIC,[2],0.78 µM
same,MIC,[3],0.39 µM
same,MIC,[4],0.78 µM
same,MIC,[5],17.7 µM
same,MIC,[6],0.78 µM
same,MIC,[7],≥ 50 µM
CC[C@H](C)[C@H](NC(=O)[C@H](CC(C)C)NC(=O)[C@H](CCCN=C(N)N)NC(=O)[C@@H](NC(=O)[C@H](C)NC(=O)[C@H](CCCCN)NC(=O)[C@H](CC(C)C)NC(=O)[C@H](CC(C)C)NC(=O)[C@@H](N)CCC(=O)O)C(C)C)C(=O)N[C@@H](CCCCN)C(=O)O [ELLKAVRLIK],MIC,[8],20 µM
same,MIC,[9],10 µM
same,MIC,[1],28.3 µM
same,MIC,Pseudomonas aeruginosa 1,10 µM
same,MIC,Pseudomonas aeruginosa,5 µM
same,MIC,Staphylococcus aureus 4,10 µM
same,MIC,Staphylococcus aureus 1,5 µM
same,MIC,Escherichia coli O157,10 µM
same,MIC,[10],10 µM
same,MIC,Enterococcus faecium,10 µM
same,MIC,Staphylococcus aureus,20 µM
CSCC[C@H](NC(=O)[C@H](C)NC(=O)[C@H](CC(C)C)NC(=O)[C@@H]1CCCN1C(=O)[C@H](CC(C)C)NC(=O)[C@@H](N)Cc1ccccc1)C(=O)N[C@@H](C)C(=O)N[C@@H](CC(C)C)C(=O)NCC(=O)N[C@@H](CCCCN)C(=O)N[C@@H](CC(C)C)C(=O)N[C@@H](CC(C)C)C(N)=O [FLPLAMALGKLL],MIC,[11],≥ 160 µM
same,MIC,[12],40 µM
same,MIC,[13],≥ 100 µM
CC[C@H](C)[C@H](NC(=O)CN)C(=O)NCC(=O)N[C@H](C(=O)N[C@@H](CCCCN)C(=O)N[C@H](C(=O)N[C@@H](CC(C)C)C(=O)NCC(=O)NCC(=O)N[C@H](C(=O)N[C@@H](CCCCN)C(=O)N[C@@H](C)C(=O)N[C@@H](C)C(=O)N[C@@H](CC(C)C)C(=O)N[C@@H](CCCCN)C(=O)NCC(=O)N[C@@H](C)C(=O)N[C@@H](CC(C)C)C(=O)N[C@@H](CCCCN)C(=O)N[C@@H](CCC(=O)O)C(=O)N[C@@H](CC(C)C)C(=O)N[C@@H](C)C(=O)N[C@@H](CO)C(=O)N[C@H](C(=O)N[C@@H](Cc1ccc(O)cc1)C(=O)N[C@H](C(=O)N[C@@H](CC(N)=O)C(N)=O)C(C)C)[C@@H](C)O)C(C)C)[C@@H](C)CC)[C@@H](C)O [GIGTKILGGVKAALKGALKELASTYVN],MIC,[14],≥ 37.4 µM
same,MIC,[12],3.52 µM
same,MIC,[15],7.03 µM
same,MIC,[16],28.1 µM
CC(C)C[C@@H]1NC(=O)[C@H](C(C)C)NC(=O)[C@H](Cc2ccccc2)NC(=O)[C@@H]2CSSC[C@@H]3NC(=O)[C@H](Cc4ccc(O)cc4)NC(=O)[C@@H]4CSSC[C@H](NC(=O)[C@H](CCCN=C(N)N)NC(=O)[C@H]([C@@H](C)O)NC(=O)CNC(=O)[C@H](CC(N)=O)NC(=O)[C@H](CCCN=C(N)N)NC(=O)[C@H](Cc5ccc(O)cc5)NC(=O)[C@H](CSSC[C@H](NC(=O)[C@@H]5CCCN5C1=O)C(=O)N[C@@H](Cc1c[nH]c5ccccc15)C(=O)N[C@@H](CO)C(=O)N[C@@H](C)C(=O)N[C@@H](CCCCN)C(=O)N[C@@H](Cc1ccccc1)C(=O)NCC(=O)N4)NC(=O)[C@H](Cc1ccccc1)NC(=O)CNC(=O)[C@H](CCCCN)NC(=O)[C@H](CCC(N)=O)NC3=O)C(=O)NCC(=O)N[C@@H](CCC(=O)O)C(=O)N[C@@H]([C@@H](C)O)C(=O)N2 [GTRCGETCFVLPCWSAKFGCYCQKGFCYRN],MIC,[17],≥ 80 µM
same,MIC,[15],3.4 µM
same,MIC,[18],≥ 80 µM
same,MIC,[19],5.9 µM
CC(C)C[C@H](NC(=O)[C@H](Cc1c[nH]c2ccccc12)NC(=O)[C@H](CCCN=C(N)N)NC(=O)CNC(=O)[C@H](CC(C)C)NC(=O)[C@H](CC(C)C)NC(=O)[C@H](CCCCN)NC(=O)[C@H](CO)NC(=O)[C@H](CC(C)C)NC(=O)[C@H](Cc1c[nH]c2ccccc12)NC(=O)[C@H](CCC(N)=O)NC(=O)[C@H](CC(C)C)NC(=O)[C@@H](N)CC(C)C)C(N)=O [LLQWLSKLLGRWL],MIC,[20],6 µM
same,MIC,[12],6 µM
same,MIC,[21],12 µM
same,MIC,Staphylococcus capitis 1,6 µM
same,MIC,[22],6 µM
same,MIC,[23],12 µM
same,MIC,[24],≥ 48 µM
same,MIC,[15],> 48 µM
same,MIC,[25],12 µM
same,MIC,Bacillus megaterium Bm11,3 µM
same,MIC,[26],6 µM
same,MIC,[27],> 48 µM
same,MIC,[28],6 µM
same,MIC,Escherichia coli D21,≥ 48 µM
same,MIC,Acinetobacter junii RT-4,6 µM
same,MIC,[29],3 µM
same,MIC,Saccharomyces cerevisiae,12 µM
same,MIC,[30],6 µM
CC(C)C[C@H](NC(=O)[C@H](CCCCN)NC(=O)[C@H](CCCN=C(N)N)NC(=O)[C@H](Cc1ccccc1)NC(=O)[C@H](Cc1ccccc1)NC(=O)[C@H](CCCCN)NC(=O)[C@H](CCCCN)NC(=O)[C@H](Cc1ccccc1)NC(=O)[C@H](CCCN=C(N)N)NC(=O)[C@H](CCCCN)NC(=O)[C@@H](NC(=O)[C@@H](N)CC(C)C)C(C)C)C(=O)N[C@@H](CCCCN)C(=O)N[C@@H](CCCCN)C(=O)N[C@@H](CO)C(=O)N[C@H](C(N)=O)C(C)C [LVKRFKKFFRKLKKSV],MIC,Enterobacter cloacae,15.6 µM
same,MIC,[9],≥ 62.4 µM
same,MIC,[12],1.95 µM
same,MIC,Escherichia coli,15.6 µM
same,MIC,Pseudomonas aeruginosa,7.79 µM
same,MIC,[15],7.79 µM
same,MIC,[31],1.95 µM
same,MIC,[27],31.2 µM
same,MIC,Bacillus subtilis,31.2 µM
same,MIC,Staphylococcus aureus,31.2 µM
